“And” between values parts separate entries of the source, which are not always exact repeats. Equal values may be shown once. Toxic doses and inconclusive results are not listed. Rule as the data show it: active = T/C of 150% or more; inactive = T/C below 125%.
System: L1210 leukemia ip in BDF1 mice, survival T/C
Assay: NCI In Vivo Anticancer Drug Screen. Data for tumor model L1210 Leukemia (intraperitoneal) in B6D2F1 (BDF1) mice
Conditions: endpoint: mean survival time, higher = longer survival
Summary of the method: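 Mice bearing the transplanted tumor received compound or vehicle. Survival of the treated group was divided by that of the vehicle-treated control group to give the ratio.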

[1] = dose: 100.0 mg/kg/injection, schedule: Q04DX003 (ip), vehicle: saline
[2] = dose: 200.0 mg/kg/injection, schedule: Q04DX003 (ip), vehicle: saline
[3] = dose: 100.0 mg/kg/injection, schedule: Q01DX009 (ip), vehicle: Klucel (hydroxypropylcellulose) (HPC)
[4] = dose: 200.0 mg/kg/injection, schedule: Q01DX009 (ip), vehicle: Klucel (hydroxypropylcellulose) (HPC)
[5] = dose: 400.0 mg/kg/injection, schedule: Q01DX009 (ip), vehicle: Klucel (hydroxypropylcellulose) (HPC)
[6] = dose: 50.0 mg/kg/injection, schedule: Q01DX009 (ip), vehicle: Klucel (hydroxypropylcellulose) (HPC)
[7] = dose: 100.0 mg/kg/injection, schedule: Q01DX001 (ip), vehicle: carboxymethylcellulose (CMC)
[8] = dose: 200.0 mg/kg/injection, schedule: Q01DX001 (ip), vehicle: carboxymethylcellulose (CMC)
[9] = dose: 200.0 mg/kg/injection, schedule: Q01DX001 (ip), vehicle: saline
[10] = dose: 100.0 mg/kg/injection, schedule: Q04DX003 (ip), vehicle: Klucel (hydroxypropylcellulose) (HPC)
[11] = dose: 200.0 mg/kg/injection, schedule: Q04DX003 (ip), vehicle: Klucel (hydroxypropylcellulose) (HPC)
[12] = dose: 400.0 mg/kg/injection, schedule: Q04DX003 (ip), vehicle: Klucel (hydroxypropylcellulose) (HPC)
[13] = dose: 100.0 mg/kg/injection, schedule: Q04DX003 (ip), vehicle: saline with Tween-80
[14] = dose: 200.0 mg/kg/injection, schedule: Q04DX003 (ip), vehicle: saline with Tween-80
[15] = dose: 400.0 mg/kg/injection, schedule: Q04DX003 (ip), vehicle: saline with Tween-80
[16] = dose: 100.0 mg/kg/injection, schedule: Q01DX001 (ip), vehicle: saline

Measured: T/C

COC1CCC2CC3C4Cc5cn[nH]c5C5OC1C2C54CCN3C (configuration not stated)
inactive: [1] 95 % of control | [2] 86 % of control

NNC(=O)c1ccc(NC(=S)Nc2ccccc2)cc1
inactive: [3] 93 % of control | [4] 93 % of control | [5] 104 % of control

CC(C)(CO)N=Cc1cc(Cl)cc(Cl)c1O
inactive: dose: 75.0 mg/kg/injection, schedule: Q01DX001 (ip), vehicle: saline 102 % of control | dose: 150.0 mg/kg/injection, schedule: Q01DX001 (ip), vehicle: saline 101 % of control | dose: 300.0 mg/kg/injection, schedule: Q01DX001 (ip), vehicle: saline 109 % of control

CCOC(=O)CNC(=O)CBr
inactive: dose: 10.0 mg/kg/injection, schedule: Q01DX Z (ip), vehicle: other 103 % of control | dose: 20.0 mg/kg/injection, schedule: Q01DX Z (ip), vehicle: other 91 % of control

O=S1(=O)CCC(N(N=C2CCCCC2)c2ccccc2)C1 (configuration not stated)
inactive: [6] 95 % of control | [3] 98 % of control | [4] 106 % of control | [5] 95 % of control

COC1OC2COC(c3ccccc3)OC2C(OC(=O)c2ccccc2)C1OC(=O)c1ccccc1 (configuration not stated)
inactive: dose: 12.5 mg/kg/injection, schedule: Q04DX002 (ip), vehicle: Klucel (hydroxypropylcellulose) (HPC) 104 % of control | dose: 25.0 mg/kg/injection, schedule: Q04DX002 (ip), vehicle: Klucel (hydroxypropylcellulose) (HPC) 100 % of control | dose: 50.0 mg/kg/injection, schedule: Q04DX002 (ip), vehicle: Klucel (hydroxypropylcellulose) (HPC) 98 % of control

CC(C)OC(C(=O)O)c1ccccc1 (configuration not stated)
inactive: [7] 101 % of control | [8] 101 % of control

CC1(CCCc2ccc(N)cc2)N=C(N)N=C(N)N1c1ccccc1 (configuration not stated)
inactive: dose: 50.0 mg/kg/injection, schedule: Q01DX001 (ip), vehicle: Klucel (hydroxypropylcellulose) (HPC) 106 % of control | dose: 100.0 mg/kg/injection, schedule: Q01DX001 (ip), vehicle: Klucel (hydroxypropylcellulose) (HPC) 112 % of control | dose: 200.0 mg/kg/injection, schedule: Q01DX001 (ip), vehicle: Klucel (hydroxypropylcellulose) (HPC) 110 % of control

CNC(=O)Oc1ccc(SC)c(C)c1
inactive: dose: 0.37 mg/kg/injection, schedule: Q01DX009 (ip), vehicle: Klucel (hydroxypropylcellulose) (HPC) 94 % of control | dose: 0.75 mg/kg/injection, schedule: Q01DX009 (ip), vehicle: Klucel (hydroxypropylcellulose) (HPC) 97 % of control | dose: 1.5 mg/kg/injection, schedule: Q01DX009 (ip), vehicle: Klucel (hydroxypropylcellulose) (HPC) 102 % of control and 103 % of control | dose: 5.0 mg/kg/injection, schedule: Q01DX001 (ip), vehicle: carboxymethylcellulose (CMC) 86 % of control | dose: 10.0 mg/kg/injection, schedule: Q01DX001 (ip), vehicle: carboxymethylcellulose (CMC) 94 % of control

CC1(C#N)CCc2c(ccc3ccccc23)C1=O (configuration not stated)
inactive: dose: 100.0 mg/kg/injection, schedule: Q01DX009 (ip), vehicle: saline 95 % of control | [1] 96 % of control | dose: 200.0 mg/kg/injection, schedule: Q01DX009 (ip), vehicle: saline 95 % of control | [2] 94 % of control | dose: 400.0 mg/kg/injection, schedule: Q04DX003 (ip), vehicle: saline 101 % of control

NS(=O)(=O)c1nc[nH]c1[N+](=O)[O-]
inactive: dose: 100.0 mg/kg/injection, schedule: Q01DX009 (ip), vehicle: acetone 92 % of control | dose: 200.0 mg/kg/injection, schedule: Q01DX009 (ip), vehicle: acetone 90 % of control

Nc1nc(Nc2ccc(NC=O)cc2)c(NC=O)c(=O)[nH]1
inactive: dose: 50.0 mg/kg/injection, schedule: Q01DX001 (ip), vehicle: saline 89 % of control | [9] 86 % of control

CCN(Cc1ccccc1)C(=O)Nc1ccc(OC)cc1
inactive: [3] 103 % of control | [4] 97 % of control | [5] 106 % of control

O=c1oc(-c2ccccc2I)nc2ccccc12
inactive: dose: 50.0 mg/kg/injection, schedule: Q04DX003 (ip), vehicle: Klucel (hydroxypropylcellulose) (HPC) 88 % of control | [3] 95 % of control | [10] 103 % of control | [4] 97 % of control | [11] 97 % of control | [5] 88 % of control | [12] 104 % of control

CN(C)Cc1ncccc1OC(=O)N(c1ccccc1)c1ccccc1
inactive: dose: 12.5 mg/kg/injection, schedule: Q01DX009 (ip), vehicle: saline 97 % of control | dose: 25.0 mg/kg/injection, schedule: Q01DX009 (ip), vehicle: saline 97 % of control | dose: 50.0 mg/kg/injection, schedule: Q01DX009 (ip), vehicle: saline 100 % of control

CC(=O)c1ccc(NC(=O)C(F)(F)F)cc1
inactive: dose: 50.0 mg/kg/injection, schedule: Q01DX001 (ip), vehicle: carboxymethylcellulose (CMC) 101 % of control | [7] 95 % of control | [8] 97 % of control | dose: 400.0 mg/kg/injection, schedule: Q01DX001 (ip), vehicle: carboxymethylcellulose (CMC) 92 % of control

O=c1[nH]c2nc(SCc3ccccc3)n(Cc3ccccc3)c2c(=O)n1OS(=O)(=O)c1ccccc1
inactive: dose: 100.0 mg/kg/injection, schedule: Q04DX002 (ip), vehicle: saline with Tween-80 101 % of control and 108 % of control | [13] 96 % of control | dose: 200.0 mg/kg/injection, schedule: Q04DX002 (ip), vehicle: saline with Tween-80 94 % of control and 96 % of control | [14] 94 % of control | dose: 400.0 mg/kg/injection, schedule: Q04DX002 (ip), vehicle: saline with Tween-80 94 % of control and 96 % of control | [15] 91 % of control

CCC(C)(OC(=O)c1ccc([N+](=O)[O-])cc1)C(C)C (configuration not stated)
inactive: dose: 75.0 mg/kg/injection, schedule: Q04DX002 (ip), vehicle: saline with Tween-80 95 % of control | dose: 150.0 mg/kg/injection, schedule: Q04DX002 (ip), vehicle: saline with Tween-80 91 % of control

O/N=C1/C=C(c2ccccc2)C(O)(c2ccccc2)C1 (configuration not stated)
inactive: [13] 102 % of control | [14] 96 % of control | [15] 93 % of control

CCc1cccc(CC)c1NC(=O)Nc1ccc(Br)cc1
inactive: dose: 50.0 mg/kg/injection, schedule: Q04DX003 (ip), vehicle: saline 87 % of control | [16] 86 % of control | [1] 87 % of control | [9] 89 % of control | [2] 92 % of control

COC(=O)C(C)Oc1ccc([N+](=O)[O-])c(O)c1[N+](=O)[O-] (configuration not stated)
inactive: [10] 100 % of control | [11] 91 % of control | [12] 96 % of control

O=C(O)c1ccc(C(=O)O)c(O)c1
inactive: [16] 105 % of control | [9] 97 % of control | dose: 400.0 mg/kg/injection, schedule: Q01DX001 (ip), vehicle: saline 94 % of control

CN(C)c1nc(N)c(N)c(N)n1
inactive: dose: 25.0 mg/kg/injection, schedule: Q01DX001 (ip), vehicle: saline with Tween-80 101 % of control | dose: 50.0 mg/kg/injection, schedule: Q01DX001 (ip), vehicle: saline with Tween-80 107 % of control | dose: 100.0 mg/kg/injection, schedule: Q01DX001 (ip), vehicle: saline with Tween-80 96 % of control and 97 % of control

c1ccc(N/N=C(/C[n+]2cc3ccccc3c3ccccc32)c2ccccc2)cc1
inactive: dose: 12.5 mg/kg/injection, schedule: Q01DX009 (ip), vehicle: Klucel (hydroxypropylcellulose) (HPC) 100 % of control | dose: 25.0 mg/kg/injection, schedule: Q01DX009 (ip), vehicle: Klucel (hydroxypropylcellulose) (HPC) 89 % of control | [6] 102 % of control | [3] 100 % of control

— PubChem BioAssay AID248 (DTP/NCI, 2004)
